# PubChem BioAssay (NCI)
#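 The compound was tested at five concentrations on cells cultured in 96-well plates, with a 48-hour exposure period. GI50: concentration for 50% inhibition of growth. The concentration for full growth arrest is given as TGI.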
# Columns and labels:
# Assay in all cases: DTP human tumour cell line panel, 48 h
# 786-0 renal = test system: 786-0 renal
# A498 renal = test system: A498 renal
# A549 NSCLC = test system: A549 NSCLC
# ACHN renal = test system: ACHN renal
# BT-549 breast = test system: BT-549 breast
# CAKI-1 renal = test system: CAKI-1 renal
# COLO 205 colon = test system: COLO 205 colon
# DU-145 prostate = test system: DU-145 prostate
# EKVX NSCLC = test system: EKVX NSCLC
# HCT-116 colon = test system: HCT-116 colon
# HCT-15 colon = test system: HCT-15 colon
# HOP-62 NSCLC = test system: HOP-62 NSCLC
# HOP-92 NSCLC = test system: HOP-92 NSCLC
# HT29 colon = test system: HT29 colon
# IGROV1 ovarian = test system: IGROV1 ovarian
# K-562 leukemia = test system: K-562 leukemia
# KM12 colon = test system: KM12 colon
# LOX IMVI melanoma = test system: LOX IMVI melanoma
# M14 melanoma = test system: M14 melanoma
# MALME-3M melanoma = test system: MALME-3M melanoma
# MDA-MB-231 breast = test system: MDA-MB-231 breast
# MDA-MB-435 = test system: MDA-MB-435
# MOLT-4 leukemia = test system: MOLT-4 leukemia
# NCI-H226 lung = test system: NCI-H226 lung
# NCI-H23 lung = test system: NCI-H23 lung
# NCI-H460 lung = test system: NCI-H460 lung
# NCI-H522 lung = test system: NCI-H522 lung
# NCI/ADR-RES ovarian = test system: NCI/ADR-RES ovarian
# OVCAR-3 ovarian = test system: OVCAR-3 ovarian
# OVCAR-4 ovarian = test system: OVCAR-4 ovarian
# OVCAR-5 ovarian = test system: OVCAR-5 ovarian
# OVCAR-8 ovarian = test system: OVCAR-8 ovarian
# RPMI-8226 leukemia = test system: RPMI-8226 leukemia
# RXF 393 renal = test system: RXF 393 renal
# SF-268 CNS = test system: SF-268 CNS
# SF-295 CNS = test system: SF-295 CNS
# SF-539 CNS = test system: SF-539 CNS
# SK-MEL-28 melanoma = test system: SK-MEL-28 melanoma
# SK-MEL-5 melanoma = test system: SK-MEL-5 melanoma
# SK-OV-3 ovarian = test system: SK-OV-3 ovarian
# SN12C renal = test system: SN12C renal
# SNB-19 CNS = test system: SNB-19 CNS
# SNB-75 CNS = test system: SNB-75 CNS
# SW-620 colon = test system: SW-620 colon
# T-47D breast = test system: T-47D breast
# TK-10 renal = test system: TK-10 renal
# U251 CNS = test system: U251 CNS
# UACC-257 melanoma = test system: UACC-257 melanoma
# UO-31 renal = test system: UO-31 renal
# CCRF-CEM leukemia = test system: CCRF-CEM leukemia
# HCC-2998 colon = test system: HCC-2998 colon
# HL-60(TB) leukemia = test system: HL-60(TB) leukemia
# HS 578T breast = test system: HS 578T breast
# MCF7 breast = test system: MCF7 breast
# PC-3 prostate = test system: PC-3 prostate
# SK-MEL-2 melanoma = test system: SK-MEL-2 melanoma
# SR leukemia = test system: SR leukemia
# UACC-62 melanoma = test system: UACC-62 melanoma
smiles,measurement,setting,value
N#CC(C(=O)c1cccnc1Cl)c1nc2cc(C(F)(F)F)ccc2s1 (stereo not given),TGI,786-0 renal,> 100 µM
same,TGI,A498 renal,87 µM
same,TGI,A549 NSCLC,> 100 µM
same,TGI,ACHN renal,> 100 µM
same,TGI,BT-549 breast,> 100 µM
same,TGI,CAKI-1 renal,> 100 µM
same,TGI,COLO 205 colon,> 100 µM
same,TGI,DU-145 prostate,> 100 µM
same,TGI,EKVX NSCLC,> 100 µM
same,TGI,HCT-116 colon,90.3 µM
same,TGI,HCT-15 colon,> 100 µM
same,TGI,HOP-62 NSCLC,> 100 µM
same,TGI,HOP-92 NSCLC,54.4 µM
same,TGI,HT29 colon,> 100 µM
same,TGI,IGROV1 ovarian,> 100 µM
same,TGI,K-562 leukemia,> 100 µM
same,TGI,KM12 colon,> 100 µM
same,TGI,LOX IMVI melanoma,> 100 µM
same,TGI,M14 melanoma,> 100 µM
same,TGI,MALME-3M melanoma,> 100 µM
same,TGI,MDA-MB-231 breast,> 100 µM
same,TGI,MDA-MB-435,> 100 µM
same,TGI,MOLT-4 leukemia,> 100 µM
same,TGI,NCI-H226 lung,> 100 µM
same,TGI,NCI-H23 lung,> 100 µM
same,TGI,NCI-H460 lung,> 100 µM
same,TGI,NCI-H522 lung,61.4 µM
same,TGI,NCI/ADR-RES ovarian,> 100 µM
same,TGI,OVCAR-3 ovarian,> 100 µM
same,TGI,OVCAR-4 ovarian,> 100 µM
same,TGI,OVCAR-5 ovarian,> 100 µM
same,TGI,OVCAR-8 ovarian,> 100 µM
same,TGI,RPMI-8226 leukemia,> 100 µM
same,TGI,RXF 393 renal,> 100 µM
same,TGI,SF-268 CNS,> 100 µM
same,TGI,SF-295 CNS,> 100 µM
same,TGI,SF-539 CNS,> 100 µM
same,TGI,SK-MEL-28 melanoma,> 100 µM
same,TGI,SK-MEL-5 melanoma,> 100 µM
same,TGI,SK-OV-3 ovarian,> 100 µM
same,TGI,SN12C renal,> 100 µM
same,TGI,SNB-19 CNS,> 100 µM
same,TGI,SNB-75 CNS,> 100 µM
same,TGI,SW-620 colon,> 100 µM
same,TGI,T-47D breast,> 100 µM
same,TGI,TK-10 renal,> 100 µM
same,TGI,U251 CNS,> 100 µM
same,TGI,UACC-257 melanoma,> 100 µM
same,TGI,UO-31 renal,> 100 µM
CCOC(=O)c1ccc(NC(=O)Nc2nncs2)cc1,GI50,786-0 renal,0.474 µM
same,TGI,786-0 renal,14.5 µM
same,GI50,A498 renal,0.23 µM
same,TGI,A498 renal,0.978 µM
same,GI50,A549 NSCLC,0.41 µM
same,TGI,A549 NSCLC,26.1 µM
same,GI50,ACHN renal,1.24 µM
same,TGI,ACHN renal,23.9 µM
same,GI50,BT-549 breast,0.735 µM
same,TGI,BT-549 breast,13.3 µM
same,GI50,CAKI-1 renal,0.427 µM
same,TGI,CAKI-1 renal,> 47 µM
same,GI50,CCRF-CEM leukemia,0.23 µM
same,TGI,CCRF-CEM leukemia,> 52.7 µM
same,GI50,COLO 205 colon,0.174 µM
same,TGI,COLO 205 colon,2.63 µM
same,GI50,DU-145 prostate,0.309 µM
same,TGI,DU-145 prostate,4.11 µM
same,GI50,HCC-2998 colon,0.571 µM
same,TGI,HCC-2998 colon,8.24 µM
same,GI50,HCT-116 colon,0.109 µM
same,TGI,HCT-116 colon,11.8 µM
same,GI50,HCT-15 colon,0.0688 µM
same,TGI,HCT-15 colon,> 100 µM
same,GI50,HL-60(TB) leukemia,0.106 µM
same,TGI,HL-60(TB) leukemia,6.7 µM
same,GI50,HOP-62 NSCLC,0.237 µM
same,TGI,HOP-62 NSCLC,15.6 µM
same,TGI,HOP-92 NSCLC,0.947 µM
same,GI50,HS 578T breast,0.297 µM
same,TGI,HS 578T breast,47.4 µM
same,GI50,HT29 colon,0.189 µM
same,TGI,HT29 colon,10.9 µM
same,GI50,IGROV1 ovarian,0.374 µM
same,TGI,IGROV1 ovarian,14.8 µM
same,GI50,K-562 leukemia,0.0754 µM
same,TGI,K-562 leukemia,> 46.6 µM
same,GI50,KM12 colon,0.136 µM
same,TGI,KM12 colon,11.8 µM
same,GI50,LOX IMVI melanoma,0.485 µM
same,TGI,LOX IMVI melanoma,7.67 µM
same,GI50,M14 melanoma,0.104 µM
same,TGI,M14 melanoma,3.02 µM
same,GI50,MALME-3M melanoma,0.132 µM
same,TGI,MALME-3M melanoma,36.1 µM
same,GI50,MCF7 breast,0.116 µM
same,TGI,MCF7 breast,> 32.9 µM
same,GI50,MDA-MB-231 breast,0.532 µM
same,TGI,MDA-MB-231 breast,6.35 µM
same,GI50,MOLT-4 leukemia,0.384 µM
same,TGI,MOLT-4 leukemia,> 48.7 µM
same,GI50,NCI-H226 lung,1.09 µM
same,TGI,NCI-H226 lung,19.5 µM
same,GI50,NCI-H23 lung,0.649 µM
same,TGI,NCI-H23 lung,12.1 µM
same,GI50,NCI-H460 lung,0.379 µM
same,TGI,NCI-H460 lung,14.1 µM
same,GI50,NCI-H522 lung,0.0746 µM
same,TGI,NCI-H522 lung,1.87 µM
same,GI50,NCI/ADR-RES ovarian,0.229 µM
same,TGI,NCI/ADR-RES ovarian,10.6 µM
same,GI50,OVCAR-3 ovarian,0.0963 µM
same,TGI,OVCAR-3 ovarian,0.415 µM
same,GI50,OVCAR-4 ovarian,0.916 µM
same,TGI,OVCAR-4 ovarian,21.5 µM
same,GI50,OVCAR-5 ovarian,0.78 µM
same,TGI,OVCAR-5 ovarian,> 100 µM
same,GI50,OVCAR-8 ovarian,0.371 µM
same,TGI,OVCAR-8 ovarian,13.5 µM
same,GI50,PC-3 prostate,0.273 µM
same,TGI,PC-3 prostate,24.2 µM
same,GI50,RPMI-8226 leukemia,0.499 µM
same,TGI,RPMI-8226 leukemia,10.2 µM
same,GI50,RXF 393 renal,0.14 µM
same,TGI,RXF 393 renal,0.489 µM
same,GI50,SF-268 CNS,0.952 µM
same,TGI,SF-268 CNS,22.9 µM
same,GI50,SF-295 CNS,0.262 µM
same,TGI,SF-295 CNS,0.988 µM
same,GI50,SF-539 CNS,0.162 µM
same,TGI,SF-539 CNS,2.36 µM
same,GI50,SK-MEL-2 melanoma,0.734 µM
same,TGI,SK-MEL-2 melanoma,24 µM
same,GI50,SK-MEL-28 melanoma,0.25 µM
same,TGI,SK-MEL-28 melanoma,56 µM
same,GI50,SK-MEL-5 melanoma,0.0672 µM
same,TGI,SK-MEL-5 melanoma,5.16 µM
same,GI50,SK-OV-3 ovarian,0.178 µM
same,TGI,SK-OV-3 ovarian,3.11 µM
same,GI50,SN12C renal,0.662 µM
same,TGI,SN12C renal,16.1 µM
same,GI50,SNB-19 CNS,0.456 µM
same,TGI,SNB-19 CNS,> 61.1 µM
same,GI50,SNB-75 CNS,0.0832 µM
same,TGI,SNB-75 CNS,19.3 µM
same,GI50,SR leukemia,0.0527 µM
same,TGI,SR leukemia,24.3 µM
same,GI50,SW-620 colon,0.0818 µM
same,TGI,SW-620 colon,> 100 µM
same,GI50,T-47D breast,0.584 µM
same,TGI,T-47D breast,34.4 µM
same,GI50,TK-10 renal,5.79 µM
same,TGI,TK-10 renal,41.2 µM
same,GI50,U251 CNS,0.25 µM
same,TGI,U251 CNS,12.7 µM
same,GI50,UACC-257 melanoma,1.43 µM
same,TGI,UACC-257 melanoma,> 85.1 µM
same,GI50,UACC-62 melanoma,0.0761 µM
same,TGI,UACC-62 melanoma,26.4 µM
same,GI50,UO-31 renal,1.48 µM
same,TGI,UO-31 renal,28.7 µM
